# Data from US12534452B2, “N-(1H-imidazol-2-yl)benzamide compound and pharmaceutical composition comprising the same as active ingredient” (KAINOS MEDICINE, INC., priority 2019, dated 2026).
# Target: IRAK4 (Homo sapiens (Human), UniProt Q9NWZ3)
# Assay: In vitro IRAK4 phosphorylation activity assay
# Format: biochemical
# Details: [γ-33P]-ATP, myelin basic protein substrate, 40 minutes at room temperature; categories
# Summary of the method: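 Radiometric filter-binding assay, no compound–kinase preincubation; 8 mM MOPS pH 7.0, 0.2 mM EDTA, 10 mM Mg acetate, 0.33 mg/mL myelin basic protein substrate, [γ-33P]-ATP. Reaction 40 min at room temperature, stopped with phosphoric acid, scintillation counting; IC50 reported in categories.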
# IRAK4, sequence (Q9NWZ3 whole entry): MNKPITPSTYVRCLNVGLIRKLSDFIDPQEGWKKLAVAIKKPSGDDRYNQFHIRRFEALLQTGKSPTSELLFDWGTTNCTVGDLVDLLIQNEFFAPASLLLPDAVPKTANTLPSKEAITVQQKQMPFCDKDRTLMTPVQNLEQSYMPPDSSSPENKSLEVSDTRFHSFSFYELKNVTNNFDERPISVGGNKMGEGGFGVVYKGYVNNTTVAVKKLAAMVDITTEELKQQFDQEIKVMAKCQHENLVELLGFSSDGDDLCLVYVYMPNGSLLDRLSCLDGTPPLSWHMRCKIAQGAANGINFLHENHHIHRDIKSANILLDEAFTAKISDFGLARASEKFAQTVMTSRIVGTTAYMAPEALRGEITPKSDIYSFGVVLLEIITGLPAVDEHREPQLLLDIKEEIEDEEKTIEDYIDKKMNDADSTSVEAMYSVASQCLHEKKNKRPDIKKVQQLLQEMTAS
row,IC50,Compound
1,> 100 nM,"O=C(CCc1cn(CC2CCCCC2)c(NC(=O)c2cccc(-c3cn[nH]c3)c2)n1)Nc1ccccc1 [Example 295, N-(1-(cyclohexylmethyl)-4-(3-oxo-3-(phenylamino)propyl)-1H-imidazol-2-yl)-3-(1H-pyrazol-4-yl)benzamide]"
2,50 to 100 nM,"COC[C@@H]1CCCN1C(=O)Cc1cn(-c2ccccc2)c(NC(=O)c2cccc(-c3cn[nH]c3)c2)n1 [Example 46, (S)—N-(4-(2-(2-(methoxymethyl)pyrrolidin-1-yl)-2-oxoethyl)-1-phenyl-1H-imidazol-2-yl)-3-(1H-pyrazol-4-yl)benzamide]"
3,< 50 nM,"C[C@@H]1CCCCN1C(=O)CCCc1cn(-c2ccccc2)c(NC(=O)c2cccc(-c3cn[nH]c3)c2)n1 [Example 61, (R)—N-(4-(4-(2-methylpiperidin-1-yl)-4-oxobutyl)-1-phenyl-1H-imidazol-2-yl)-3-(1H-pyrazol-4-yl)benzamide]"
4,< 50 nM,"O=C(O)CCCc1cn(-c2ccccc2)c(NC(=O)c2cccc(-c3cn[nH]c3)c2)n1 [Example 57, 4-(2-(3-(1H-pyrazol-4-yl)benzamido)-1-phenyl-1H-imidazol-4-yl)butanoic acid]"
5,< 50 nM,"CC(C)N1CCN(C(=O)CCCc2cn(-c3ccccc3)c(NC(=O)c3cccc(-c4cnn(C)c4)c3)n2)CC1 [Example 145, N-(4-(4-(4-isopropylpiperazin-1-yl)-4-oxobutyl)-1-phenyl-1H-imidazol-2-yl)-3-(1-methyl-1H-pyrazol-4-yl)benzamide]"
6,> 100 nM,"CNC(=O)Cc1cn(-c2ccccc2)c(NC(=O)c2cccnc2)n1 [Example 51, N-(4-(2-(methylamino)-2-oxoethyl)-1-phenyl-1H-imidazol-2-yl)nicotinamide]"
7,< 50 nM,"Cn1cc(-c2cccc(C(=O)Nc3nc(CCCC(=O)NCCC(C)(C)O)cn3-c3ccccc3)c2)cn1 [Example 171, N-(4-(4-((3-hydroxy-3-methylbutyl)amino)-4-oxobutyl)-1-phenyl-1H-imidazol-2-yl)-3-(1-methyl-1H-pyrazol-4-yl)benzamide]"
8,50 to 100 nM,"O=C(Nc1nc(CCC(=O)N2CCCC[C@@H]2C(F)(F)F)cn1-c1ccccc1)c1cccc(-c2cn[nH]c2)c1 [Example 39, (R)—N-(4-(3-oxo-3-(2-(trifluoromethyl)piperidin-1-yl)propyl)-1-phenyl-1H-imidazol-2-yl)-3-(1H-pyrazol-4-yl)benzamide]"
9,< 50 nM,"CC(C)OC(=O)CCCc1cn(-c2ccccc2)c(NC(=O)c2cccc(-c3cn[nH]c3)c2)n1 [Example 70, isopropyl 4-(2-(3-(1H-pyrazol-4-yl)benzamido)-1-phenyl-1H-imidazol-4-yl)butanoate]"
10,> 100 nM,"CNC(=O)Cc1cn(-c2ccccc2)c(NC(=O)c2cccc(-c3cn[nH]c3)c2)n1 [Example 41, N-(4-(2-(methylamino)-2-oxoethyl)-1-phenyl-1H-imidazol-2-yl)-3-(1H-pyrazol-4-yl)benzamide]"
11,50 to 100 nM,"O=C(CCc1cn(-c2ccccc2)c(NC(=O)c2cccc(-c3cn[nH]c3)c2)n1)Nn1cnnc1 [Example 21, N-(4-(3-((4H-1,2,4-triazol-4-yl)amino)-3-oxopropyl)-1-phenyl-1H-imidazol-2-yl)-3-(1H-pyrazol-4-yl)benzamide]"
12,< 50 nM,"CN(C)C1CCC(NC(=O)CCCc2cn(-c3ccccc3)c(NC(=O)c3cccc(-c4cnn(C)c4)c3)n2)CC1 (stereo not shown) [Example 147, N-(4-(4-((4-(dimethylamino)cyclohexyl)amino)-4-oxobutyl)-1-phenyl-1H-imidazol-2-yl)-3-(1-methyl-1H-pyrazol-4-yl)benzamide]"
13,< 50 nM,"C[C@H]1CCCN1C(=O)CCc1cn(-c2ccccc2)c(NC(=O)c2cccc(-c3cn[nH]c3)c2)n1 [Example 24, (S)—N-(4-(3-(2-methylpyrrolidin-1-yl)-3-oxopropyl)-1-phenyl-1H-imidazol-2-yl)-3-(1H-pyrazol-4-yl)benzamide]"
14,< 50 nM,"O=C(Nc1nc(CCC(=O)N2CCCC[C@H]2C(F)(F)F)cn1-c1ccccc1)c1cccc(-c2cn[nH]c2)c1 [Example 38, (S)—N-(4-(3-oxo-3-(2-(trifluoromethyl)piperidin-1-yl)propyl)-1-phenyl-1H-imidazol-2-yl)-3-(1H-pyrazol-4-yl)benzamide]"

# The remaining lines, values behind:
row,Compound,IC50
1,"Cn1cc(-c2cccc(C(=O)Nc3nc(CCCC(=O)N4CCNCC4)cn3-c3ccccc3)c2)cn1 [Example 202, 3-(1-methyl-1H-pyrazol-4-yl)-N-(4-(4-oxo-4-(piperazin-1-yl)butyl)-1-phenyl-1H-imidazol-2-yl)benzamide]",< 50 nM
2,"CN(C)CCNC(=O)CCCc1cn(-c2ccccc2)c(NC(=O)c2cccc(-c3cnn(C)c3)c2)n1 [Example 162, N-(4-(4-((2-(dimethylamino)ethyl)amino)-4-oxobutyl)-1-phenyl-1H-imidazol-2-yl)-3-(1-methyl-1H-pyrazol-4-yl)benzamide]",50 to 100 nM
3,"C[C@@H]1CCCCN1C(=O)CCCCCc1cn(-c2ccccc2)c(NC(=O)c2cccc(-c3cn[nH]c3)c2)n1 [Example 96, (R)—N-(4-(6-(2-methylpiperidin-1-yl)-6-oxohexyl)-1-phenyl-1H-imidazol-2-yl)-3-(1H-pyrazol-4-yl)benzamide]",< 50 nM
4,"O=C(Nc1nc(CCCCCC(=O)N2CCCCC2)cn1-c1ccccc1)c1cccc(-c2ccc3[nH]nnc3c2)c1 [Example 242, 3-(1H-benzo[d][1,2,3]triazol-5-yl)-N-(4-(6-oxo-6-(piperidin-1-yl)hexyl)-1-phenyl-1H-imidazol-2-yl)benzamide]",< 50 nM
5,"N[C@@H]1CCCN(C(=O)CCc2cn(-c3ccccc3)c(NC(=O)c3cccc(-c4cn[nH]c4)c3)n2)C1 [Example 40, (R)—N-(4-(3-(3-aminopiperidin-1-yl)-3-oxopropyl)-1-phenyl-1H-imidazol-2-yl)-3-(1H-pyrazol-4-yl)benzamide]",< 50 nM
6,"O=C(Nc1nc(CCCCN2CCCCC2)cn1-c1ccccc1)c1cccc(-c2ccc3[nH]ncc3c2)c1 [Example 256, 3-(1H-indazol-5-yl)-N-(1-phenyl-4-(4-(piperidin-1-yl)butyl)-1H-imidazol-2-yl)benzamide]",< 50 nM
7,"COC[C@H]1CCCN1NC(=O)CCc1cn(-c2ccccc2)c(NC(=O)c2cccc(-c3cn[nH]c3)c2)n1 [Example 17, (R)—N-(4-(3-((2-(methoxymethyl)pyrrolidin-1-yl)amino)-3-oxopropyl)-1-phenyl-1H-imidazol-2-yl)-3-(1H-pyrazol-4-yl)benzamide]",> 100 nM
8,"CNC(=O)Cc1cn(-c2ccccc2)c(NC(=O)c2ccc(-c3cn[nH]c3)cc2)n1 [Example 48, N-(4-(2-(methylamino)-2-oxoethyl)-1-phenyl-1H-imidazol-2-yl)-4-(1H-pyrazol-4-yl)benzamide]",> 100 nM
9,"Cn1cc(-c2cccc(C(=O)Nc3nc(CCCCCC(=O)N4CCCCC4)cn3-c3ccccc3)c2)cn1 [Example 200, 3-(1-methyl-1H-pyrazol-4-yl)-N-(4-(6-oxo-6-(piperidin-1-yl)hexyl)-1-phenyl-1H-imidazol-2-yl)benzamide]",< 50 nM
10,"O=C(Nc1nc(CCC(=O)N2CCOCC2)cn1-c1ccccc1)c1cccc(-c2cn[nH]c2)c1 [Example 11, N-(4-(3-morpholino-3-oxopropyl)-1-phenyl-1H-imidazol-2-yl)-3-(1H-pyrazol-4-yl)benzamide]",< 50 nM
11,"Cn1cc(-c2cccc(C(=O)Nc3nc(CCCCN4CCCCC4)cn3-c3ccccc3)c2)cn1 [Example 219, 3-(1-methyl-1H-pyrazol-4-yl)-N-(1-phenyl-4-(4-(piperidin-1-yl)butyl)-1H-imidazol-2-yl)benzamide]",< 50 nM
